Source: US7662853B2, “Monoacetyldiacylglycerol derivative for the treatment of sepsis” (priority 2004, dated 2010)

Assays:
[1] = system: T-cell (T-4 and T-8); assay: Measurement of cytokine (IL-2) by Elispot, T cell activity; type: cell-based, mouse; conditions: FIG. 1: Compound 3 1 μg/ml
Description: Elispot bioassay ([…] enzyme-linked immunospot assay) is a very sensitive quantification assay for detecting cytokine bound to the membrane because the bottom of each well of Elispot plates used in this assay was pre-coated with a cytokine specific antibody. Thus, Elispot assay was performed to measure the T cell activity. […] Each sample was tested in duplicate. Counting the number of IL-2 producing cells by Elispot is accomplished with Elispot reader (AID Elispot Reader System).

[2] = system: dendritic cells; assay: Expression of adhesion molecules of dendritic cells (RT-PCR); type: cell-based, Balb/c AnN mice; conditions: 1 μg/ml, compared to control
Description: Bone marrow cells were obtained from the femurs and tibias of Balb/c AnN mice (Park, J. et al. (2003) J. Korean Med. Sci., 18: 372-380). The cells were washed 3 times in RPMI, and then mononuclear cells were obtained. These mononuclear cells were allowed to adhere to tissue culture flask 3 hours in RPMI and 10% FBS. After incubation, the adherent cells (monocytes) were removed and non-adherent cells were placed in 100 mm tissue culture dishes, in a concentration of 1×10^5 cells/ml in RPMI plus 10% FBS supplemented with 20 ng/ml murine rGM-CSF (R & D systems, Minneapolis, Minn., USA), 10 ng/ml, murine IL-4 (R&D systems), and 2.5 ng/ml murine TNF-α (R & D systems). Culture dishes were fed every 3 days. Murine TNF-α (R & D systems) was added at the 6th day of the culture. After that, murine TNF-α (R & D systems) was added every 3 days until on the 11th day. Mature dendritic cells were harvested for RT-PCR of adhesion molecule studies. […]
Total RNA separated from dendritic cells and MS-5, low density cells cultured with oligo(dt)-primer, was reverse-transcribed, and PCR was performed at 94° C. for 30 seconds, 65° C. for 30 seconds and 72° C. for 50 seconds. […] For the quantification, PCR with GAPDH was performed to confirm the corresponding cDNA.

[3] = system: rats; assay: Long term hepatotoxicity test; type: in vivo; conditions: 100 mg/Kg body weight/day P.O. for 4 weeks
Source text: At the end of 4 weeks liver histology was observed.

[4] = system: C3H/HeN mice with CLP-induced septic shock; assay: CLP (Cecal Ligation and Puncture) test, septic shock; type: in vivo; conditions: 50 mg/kg oral
Source text: Ten 7-10 week old male inbred C3H/HeN mice (20-25 g of weight) were grouped. […] Septic shock was induced by CLP model in anesthetized mice. […] Control group was orally administered PBS+5% ethanol solution.

CCCCC/C=C\C/C=C\CCCCCCCC(=O)OC(COC(C)=O)COC(=O)CCCCCCCCCCCCCCC (stereo not shown) [Compound 3]
increased T-4 activity comparing to control group (IL-2 Elispot spots) ([1]; T-4 cells): 1.52 folds
increased T-8 activity comparing to control group (IL-2 Elispot spots) ([1]; T-8 cells): 1.46 folds
expressions of adhesion molecules Icam-2, VLA-5, LFA-1 [2]: significantly increased
adverse effect (liver function test, lipid profile, cytochrome C-450 activity, liver histology) [3]: No significantly adverse effect was observed
Survival rate ([4]; 0 hour): 100%
Survival rate ([4]; 24 hours): 100%
Survival rate ([4]; 48 hours): 100%
Survival rate ([4]; 72 hours): 100%
Survival rate ([4]; 96 hours): 100%
Survival rate ([4]; 120 hours, 50 mg/kg): 100%
